Experimental data as given in PMC9775191, “A Subset Screen of the Compounds Australia Scaffold Library Identifies 7-Acylaminodibenzoxazepinones as Potent and Selective Hits for Anti-Giardia Drug Discovery” (Biomedicines, 2022).

Test system: G. duodenalis BRIS/91/HEPU/1279
Test: Primary Giardia screen at 10 µM (live-cell imaging, automated counting)
Type: cell-based, Giardia duodenalis
Details: for % Inhibition n=1 48h / % Inhibition n=1 24h: first singlicate assay; for % Inhibition n=2 24h / % Inhibition n=2 48h: re-assessment
Procedure, shortened: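 Compound added to 10 μM final in medium with 0.2% DMSO, one well each; plates then held in sealed chambers at 3% O2, 5% CO2 in N2; growth imaged and counted automatically at 24 and 48 h; values normalised to vehicle wells minus media blank.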

SMILES	% Inhibition n=1 48h [%]	other results
Cc1ccc(NS(=O)(=O)c2cn(C)c(C)n2)c(Br)c1 [SN00792660]	25.8	–
O=C1C2C(c3ccc(F)cc3)NC(Cc3ccccc3)(C(=O)O)C2C(=O)N1c1ccc(F)cc1 (centres unmarked) [SN00784528]	0.7	–
O=C(C1CCCN1C(=O)C1CCCCC1)N1CCCC(c2nc(-c3ccc(Cl)cc3)no2)C1 (centres unmarked) [SN00774977]	0.0	–
COc1ccc(C(NC(=O)CN2CCN(Cc3n[nH]c(C)n3)CC2)C(C)C)cc1 (centres unmarked) [SN00782152]	0.6	–
CC(C)(C)OC(=O)N1CCCC(N(Cc2ccccc2)C(=O)Cc2csc(-c3cccnc3)n2)C1 (centres unmarked) [SN00774555]	0.0	–
COc1ccc(-n2nc3c(c2NC(=O)c2ccc([N+](=O)[O-])cc2)CS(=O)(=O)C3)cc1 [SN00802781]	12.4	–
Cn1nc(C(=O)NCCCN2CCN(c3ccccc3)CC2)c2c1-c1ccccc1OC2 [SN00787244]	0.0	–
CCc1ccc(C(=O)N2CCC(Cc3nc(-c4ccc(OC)cc4)no3)CC2)cc1 [SN00801692]	0.0	–
CC(C)c1noc(-c2cc(=O)n(CC(=O)N3CCCC3)c3ccccc23)n1 [SN00798718]	0.0	–
CSc1ccc(-c2noc(-c3ccc4c(=O)n(Cc5ccccc5)c(=O)[nH]c4c3)n2)cc1 [SN00789400]	6.5	–
CCN(CC)C(=O)CN1C(=O)CN=C(c2ccc(OC)cc2)c2c1sc1c2CCCC1 [SN00791881]	0.0	–
COc1cc(-c2noc(-c3cc(C4CC4)n[nH]3)n2)cc(OC)c1OC [SN00779739]	13.7	–
Cc1cc(C)n(Cc2ccc(C(=O)N3CCN(Cc4n[nH]c(C)n4)CC3)cc2)n1 [SN00782137]	1.5	–
COc1ccc(NC(=O)c2cn(-c3ccc(-c4noc(C5CCCC5)n4)cc3)nc2C)cc1OC [SN00789967]	25.5	–
CCCNC(=O)[C@@H]1[C@@H]2C=C[C@@]3(CN(Cc4ccccc4Cl)C(=O)[C@H]13)O2 (relative stereo) [SN00784246]	16.0	–
COc1cccc(C2(C)NC(=O)N(Cc3csc(-c4ccccc4)n3)C2=O)c1 (centres unmarked) [SN00782700]	0.0	–
CC(=O)N1CCc2cc(C(=O)CN3CC(C)CC(C)C3)ccc21 (centres unmarked) [SN00785210]	19.3	–
CCOc1cc(C2OCCn3c(-c4ccccc4)c4c(=O)n(C)c(=O)n(C)c4c32)ccc1O (centres unmarked) [SN00786012]	8.5	–
CCCCNC(=O)c1cccc(N2CCCC2=O)c1 [SN00784930]	4.7	–
O=C(CS(=O)(=O)c1ccc2c(c1)S(=O)(=O)N=CN2)Nc1ccccc1 [SN00792172]	15.6	–
Cc1nn(C(C)C)c(C)c1S(=O)(=O)N1CCN(C(=O)c2cccs2)CC1 [SN00790783]	3.8	–
CC(=O)C1=C(C)NC(=O)NC1c1ccc(Cl)cc1 (centres unmarked) [SN00783317]	2.8	–
c1cnc(-c2nnc(C3CCCNC3)[nH]2)cn1 (centres unmarked) [SN00802129]	2.3	–
Cc1cccc(-c2cc(N3CCN(C(=O)c4cc(Cl)ccc4F)CC3)ncn2)c1 [SN00798065]	47.1	–
COC(=O)c1ccc(Cn2c(-c3nnc(C(C)C)o3)cc3ccccc32)cc1 [SN00789282]	4.4	–

SMILES	% Inhibition n=1 48h [%]	other results
CCN(CC)S(=O)(=O)c1ccc(Nc2ccn(CCc3ccccn3)n2)c([N+](=O)[O-])c1 [SN00777378]	39.2	Average % Inhibition 24h: 10.7%; % Inhibition n=1 24h: 21.3%; % Inhibition n=2 24h: 0.0%; Average % Inhibition 48h: 25.2%; % Inhibition n=2 48h: 11.3%
O=C(Cn1c(=O)c(=O)n(Cc2ccccc2)c2ccccc21)NCCCN1CCCC1 [SN00792985]	20.3	–
CC(=O)Nc1cc(NC(=O)c2cc(-c3ccccc3)nc3c2cnn3Cc2cccnc2)ccc1F [SN00776945]	50.1	Average % Inhibition 24h: 0.0%; % Inhibition n=1 24h: 0.0%; % Inhibition n=2 24h: 0.0%; Average % Inhibition 48h: 25.1%; % Inhibition n=2 48h: 0.0%
Cc1ccc(S(=O)(=O)N2CCCN(C(=O)c3c[nH]nc3-c3ccc(F)cc3)CC2)cc1 [SN00778123]	40.4	–
O=C(c1cccc2[nH]ccc12)N1CCC(c2nc(-c3ccccc3)no2)C1 (centres unmarked) [SN00801115]	23.0	–
COc1ccc(C(C)(C)C)cc1S(=O)(=O)N1CCN(c2nc(C)cc(N3CCOCC3)n2)CC1 [SN00793559]	5.9	–
O=C(Cc1scnc1-c1cccs1)N1CCN(c2ccccn2)CC1 [SN00786601]	0.0	–
Cc1ccc(NC(=O)Cn2c(=O)nc(NC3CCCC3)c3ccccc32)cc1C [SN00797075]	0.0	–
Cc1cc(-c2cc(S(=O)(=O)N(CCN(C)C)Cc3cccs3)c(C)s2)[nH]n1 [SN00798340]	13.6	–
O=C1CCCc2cc(S(=O)(=O)N3CCN(c4ccccc4)CC3)ccc2N1 [SN00788529]	19.1	–
CCc1nc(C)c2c(C)c(C(=O)N3CCN(Cc4ccc(OC)c(F)c4)CC3)sc2n1 [SN00779632]	14.8	–
Cc1nc(S(=O)(=O)c2ccc(Br)cc2)c(NCc2ccccc2)o1 [SN00793357]	27.4	–
CCc1c(C2CCN(C(=O)c3cnccn3)CC2)noc1N [SN00798959]	12.1	–
O=C([C@H]1C[C@H]2CCCN2[C@@]12C(=O)Nc1ccccc12)N1CCN(c2ccccc2)CC1 [SN00787657]	16.0	–
CC(=O)c1cccc(NS(=O)(=O)c2c(C)n[nH]c2C)c1 [SN00784818]	5.0	–
Cc1ccc(S(=O)(=O)N2CCC3(CC2)NCCN=C3NC2CCCCCC2)c(C)c1 [SN00796055]	0.0	–
O=S(=O)(c1cccc(F)c1)N1CC(OCc2cccc(F)c2)C1 [SN00792818]	10.0	–
CCOc1ccc(-n2c(=O)c3sc4ncccc4c3n(CC(=O)N3CCCCC3)c2=O)cc1 [SN00790501]	5.1	–
COc1ccc(CN2CCN(C(=O)c3c(C)oc4c3C3=NCCN3C=N4)CC2)c(OC)c1OC [SN00791620]	7.4	–
CC(C(=O)NC1CCCCCC1)n1c(=O)c2cccn2c2cccnc21 (centres unmarked) [SN00787599]	8.7	–
COc1ccccc1OCCNC(=O)Cn1ccc2c(c(C)nn2-c2ccccc2)c1=O [SN00797916]	27.1	–
COc1ccc(Cl)cc1-n1nnc(-c2nsc(NC(=O)c3ccccc3)n2)c1C [SN00791316]	20.0	–
CSc1cccc(NC(=O)CN2C(=O)C(C)N=C(c3ccccc3)c3ccccc32)c1 (centres unmarked) [SN00784896]	0.0	–
Cc1noc2ncnc(N3CCCC(C(=O)NC4CCCCCC4)C3)c12 (centres unmarked) [SN00788598]	0.0	–
O=C(c1ccco1)N1CCC(OCc2nc(-c3ccncc3)no2)CC1 [SN00801147]	18.6	–

SMILES	% Inhibition n=1 48h [%]	other results
Cc1ccc(-c2nnn(CC(=O)N3CCCCCC3c3cccn3C)n2)cc1 (centres unmarked) [SN00778086]	56.5	Average % Inhibition 24h: 2.1%; % Inhibition n=1 24h: 0.0%; % Inhibition n=2 24h: 4.1%; Average % Inhibition 48h: 28.3%; % Inhibition n=2 48h: 0.0%
Cc1oc(-c2ccccc2)nc1C(=O)N1CCN(S(=O)(=O)c2ccc(Br)s2)CC1 [SN00769595]	23.5	–
CCCNC(=O)CCNC(=O)N1CCCC1c1nc2cc(C)ccc2[nH]1 (centres unmarked) [SN00776915]	37.1	–
O=S(=O)(c1cccc2cccnc12)N1CCc2nc(-c3ccc(F)cc3)ncc2C1 [SN00799070]	3.1	–
COc1cccc(-c2noc(-c3cc(N4CCN(C(C)=O)CC4)nc4ccccc34)n2)c1OC [SN00796396]	7.7	–
Cc1ccc(Cn2ccc3nc(N4CCCCC4)ncc3c2=O)cc1 [SN00802904]	15.1	–
O=C1CC(C(=O)N2CCN(S(=O)(=O)c3ccc(Br)cc3)CC2)c2ccc(F)cc2N1 (centres unmarked) [SN00779129]	0.0	–
Cc1nnc(C2Cc3ccccc3CN2CCOc2ccc(F)cc2)o1 (centres unmarked) [SN00783149]	0.0	–
CC(=O)c1cccc(NC(=O)C2CCCN(S(=O)(=O)c3c(C)noc3C)C2)c1 (centres unmarked) [SN00784980]	0.0	–
CCCN1C(=O)c2cc(C(=O)Nc3ccccc3OC)ccc2C1Nc1ccccc1OC (centres unmarked) [SN00785171]	21.9	–
Cc1ccc(S(=O)(=O)N(C)c2ccsc2C(=O)Nc2ccc(C)c(C)c2)cc1 [SN00797041]	12.0	–
COC(=O)c1cn(CC(=O)NCc2cc3c(cc2C)OCCCO3)c2ccccc12 [SN00794141]	14.4	–
Cc1oc(C2CCC2)nc1C(=O)NC(C)c1ccccn1 (centres unmarked) [SN00802442]	17.0	–
COC(=O)c1c(C(=O)OC)c(-c2ccc(NS(=O)(=O)c3ccc(C)s3)cc2)n2c1CCC2 [SN00780656]	9.3	–
CCc1csc(C2CCCN(C(=O)c3ccc4c(c3)OCO4)C2)n1 (centres unmarked) [SN00781524]	0.0	–
O=C(C1CC1)N1CCCCCC1C1CCN(c2nccc(C(F)(F)F)n2)CC1 (centres unmarked) [SN00773266]	15.0	–
CCN1CCCN(c2ncnc3c2c(Br)nn3C)CC1 [SN00782469]	4.4	–
Cc1ccccc1C(=O)N1CCC(Cc2nnc(-c3ccccc3)o2)CC1 [SN00799218]	12.0	–
CC1(C(=O)NC2CCCC2)Cn2c(ccc2-c2ccco2)C(=O)N1c1cccc(F)c1 (centres unmarked) [SN00787693]	11.7	–
COc1ccc(S(=O)(=O)N2CCc3nc(-c4ccccc4)ncc3C2)cc1 [SN00799076]	6.9	–
CCOc1ccccc1OC1CCN(c2ncnc3nc[nH]c23)CC1 [SN00780570]	31.1	–
COc1ccc(CNc2nc(-c3cccc(OC)c3)no2)cc1 [SN00791772]	0.0	–
O=C(Nc1nnc(S(=O)(=O)N2CCc3ccccc32)s1)c1ccccc1 [SN00787260]	37.8	–
Cc1csc(-c2ccc(CNC(=O)c3n[nH]c4ccccc34)cc2)n1 [SN00799624]	25.2	–
